Values after ≈ are worked out from the molar mass of the structure shown.
How the values were obtained:
Format in all cases: physicochemical
[1] = Aqueous solubility in different cyclodextrin solutions (excess compound, shaken 24 hours, HPLC); conditions: aqueous cyclodextrin solution, thermodynamic from solid, room temperature, read-out: Solubility in CD's solution (concentration of compound)
Procedure: (§1) In order to test the effect of various CDs on the aqueous solubility of compound IVE, 1 mL of each of the following aqueous solutions as described in Table 2 was prepared. […] Excess IVE was present in all samples at all times to obtain solubility. After 24-hours, the samples were centrifuged. […] The size of the compound may allow it to form an inclusion complex, resulting in a higher aqueous solubility.
as §1, with “compound IVP,” for “compound IVE,”, “Table 3” for “Table 2”, “Excess IVP” for “Excess IVE”, “all times.” for “all times to obtain solubility.”
as §1, with “compound IVO,” for “compound IVE,”, “Table 4” for “Table 2”, “Excess IVO” for “Excess IVE”, “all times.” for “all times to obtain solubility.”, “inclusion body” for “inclusion”
as §1, with “compound IVQ,” for “compound IVE,”, “Table 5” for “Table 2”, “Excess IVQ” for “Excess IVE”, “all times.” for “all times to obtain solubility.”, “inclusion body” for “inclusion”

[2] = Comparable solubility test for IVO ASD-01 in DI water; conditions: 1.5 ml DI water
Procedure: The samples were centrifuged at 3 and 24 hours.

[3] = Solubility of compound IVO in solutions containing L-Arginine; conditions: thermodynamic from solid
Excerpt: After 24-hours, the samples were centrifuged. […] One possibility is that L-Arginine may help promote the formation of inclusion complex between IVO and MBCD.

[4] = aqueous with cosolvent or surfactant or cyclodextrin, ACD 40 mg/ml
[5] = aqueous with cosolvent or surfactant or cyclodextrin, HPBCD 100 mg/ml
[6] = aqueous with cosolvent or surfactant or cyclodextrin, HPGCD 100 mg/ml
[7] = aqueous with cosolvent or surfactant or cyclodextrin, MBCD 100 mg/ml
[8] = aqueous with cosolvent or surfactant or cyclodextrin, SBEBCD 100 mg/ml

COc1cccc(COc2ccc(Sc3ccoc3C3NC(=O)NC3=O)cc2)c1 (centres unmarked) [IVE, 5-{3-[4-(3-Methoxybenzyloxy)phenylthio]fur-2-yl}imidazolidine-2,4-dione]
solubility at 24 h [1, 4]: 53 µg/mL (≈ 129 µM)
solubility at 24 h [1, 5]: 744 µg/mL (≈ 1810 µM)
solubility at 24 h [1, 6]: 59 µg/mL (≈ 144 µM)
solubility at 24 h [1, 7]: 3250 µg/mL (≈ 7920 µM)
solubility at 24 h [1, 8]: 815 µg/mL (≈ 1990 µM)
solubility at 24 h ([1]; water, ACD 0 mg/ml): 23 µg/mL (≈ 56 µM)
solubility at 24 h ([1]; water, HPBCD 0 mg/ml): 23 µg/mL (≈ 56 µM)
solubility at 24 h ([1]; water, HPGCD 0 mg/ml): 23 µg/mL (≈ 56 µM)
solubility at 24 h ([1]; water, MBCD 0 mg/ml): 23 µg/mL (≈ 56 µM)
solubility at 24 h ([1]; water, SBEBCD 0 mg/ml): 23 µg/mL (≈ 56 µM)

Cc1cccc(COc2ccc(Sc3ccoc3C3NC(=O)NC3=O)cc2)c1 (centres unmarked) [IVO, 5-{3-[4-(3-Methyl-benzyloxy)phenylthio]fur-2-yl}imidazolidine-2,4-dione]
solubility at 24 h ([1]; aqueous with cosolvent or surfactant or cyclodextrin, ACD 5 mg/ml): 37 µg/mL (≈ 93.8 µM)
solubility at 24 h ([1]; aqueous with cosolvent or surfactant or cyclodextrin, ACD 10 mg/ml): 30 µg/mL (≈ 76.1 µM)
solubility at 24 h ([1]; aqueous with cosolvent or surfactant or cyclodextrin, ACD 15 mg/ml): 26 µg/mL (≈ 65.9 µM)
solubility at 24 h ([1]; aqueous with cosolvent or surfactant or cyclodextrin, ACD 20 mg/ml): 13 µg/mL (≈ 33 µM)
solubility at 24 h ([1]; aqueous with cosolvent or surfactant or cyclodextrin, ACD 30 mg/ml): 10 µg/mL (≈ 25.4 µM)
solubility at 24 h [1, 4]: 17 µg/mL (≈ 43.1 µM)
solubility at 24 h ([1]; aqueous with cosolvent or surfactant or cyclodextrin, HPBCD 25 mg/ml): 37 µg/mL (≈ 93.8 µM)
solubility at 24 h ([1]; aqueous with cosolvent or surfactant or cyclodextrin, HPBCD 50 mg/ml): 83 µg/mL (≈ 210 µM)
solubility at 24 h ([1]; aqueous with cosolvent or surfactant or cyclodextrin, HPBCD 75 mg/ml): 108 µg/mL (≈ 274 µM)
solubility at 24 h [1, 5]: 184 µg/mL (≈ 466 µM)
solubility at 24 h ([1]; aqueous with cosolvent or surfactant or cyclodextrin, HPBCD 150 mg/ml): 312 µg/mL (≈ 791 µM)
solubility at 24 h ([1]; aqueous with cosolvent or surfactant or cyclodextrin, HPBCD 200 mg/ml): 467 µg/mL (≈ 1180 µM)
solubility at 24 h ([1]; aqueous with cosolvent or surfactant or cyclodextrin, HPGCD 25 mg/ml): 9 µg/mL (≈ 22.8 µM)
solubility at 24 h ([1]; aqueous with cosolvent or surfactant or cyclodextrin, HPGCD 50 mg/ml): 16 µg/mL (≈ 40.6 µM)
solubility at 24 h ([1]; aqueous with cosolvent or surfactant or cyclodextrin, HPGCD 75 mg/ml): 6 µg/mL (≈ 15.2 µM)
solubility at 24 h [1, 6]: 2 µg/mL (≈ 5.07 µM)
solubility at 24 h ([1]; aqueous with cosolvent or surfactant or cyclodextrin, HPGCD 150 mg/ml): 4 µg/mL (≈ 10.1 µM)
solubility at 24 h ([1]; aqueous with cosolvent or surfactant or cyclodextrin, HPGCD 200 mg/ml): 3 µg/mL (≈ 7.61 µM)
solubility at 24 h ([1]; aqueous with cosolvent or surfactant or cyclodextrin, MBCD 25 mg/ml): 244 µg/mL (≈ 619 µM)
solubility at 24 h ([1]; aqueous with cosolvent or surfactant or cyclodextrin, MBCD 50 mg/ml): 477 µg/mL (≈ 1210 µM)
solubility at 24 h ([1]; aqueous with cosolvent or surfactant or cyclodextrin, MBCD 75 mg/ml): 673 µg/mL (≈ 1710 µM)
solubility at 24 h [1, 7]: 1070 µg/mL (≈ 2700 µM)
solubility at 24 h ([1]; aqueous with cosolvent or surfactant or cyclodextrin, MBCD 150 mg/ml): 1700 µg/mL (≈ 4300 µM)
solubility at 24 h ([1]; aqueous with cosolvent or surfactant or cyclodextrin, MBCD 200 mg/ml): 1780 µg/mL (≈ 4520 µM)
solubility at 24 h ([1]; aqueous with cosolvent or surfactant or cyclodextrin, SBEBCD 25 mg/ml): 94 µg/mL (≈ 238 µM)
solubility at 24 h ([1]; aqueous with cosolvent or surfactant or cyclodextrin, SBEBCD 50 mg/ml): 116 µg/mL (≈ 294 µM)
solubility at 24 h ([1]; aqueous with cosolvent or surfactant or cyclodextrin, SBEBCD 75 mg/ml): 156 µg/mL (≈ 395 µM)
solubility at 24 h [1, 8]: 174 µg/mL (≈ 441 µM)
solubility at 24 h ([1]; aqueous with cosolvent or surfactant or cyclodextrin, SBEBCD 150 mg/ml): 315 µg/mL (≈ 799 µM)
solubility at 24 h ([1]; aqueous with cosolvent or surfactant or cyclodextrin, SBEBCD 200 mg/ml): 761 µg/mL (≈ 1930 µM)
solubility at 24 h ([1]; water, ACD 0 mg/ml): 26 µg/mL (≈ 65.9 µM)
solubility at 24 h ([1]; water, HPBCD 0 mg/ml): 26 µg/mL (≈ 65.9 µM)
solubility at 24 h ([1]; water, HPGCD 0 mg/ml): 26 µg/mL (≈ 65.9 µM)
solubility at 24 h ([1]; water, MBCD 0 mg/ml): 26 µg/mL (≈ 65.9 µM)
solubility at 24 h ([1]; water, SBEBCD 0 mg/ml): 26 µg/mL (≈ 65.9 µM)
pH at 24 hrs equilibrium ([2]; 24 hrs): 8.09
solubility at 24 h ([2]; pH 8.09, thermodynamic from solid, room temperature, 24 hrs): 11 µg/mL (≈ 27.9 µM)
solubility at 3 h ([2]; thermodynamic from solid, room temperature, 3 hrs): 2 µg/mL (≈ 5.07 µM)
solubility at 24 h ([3]; DI water, water, L-Arginine 0 % w/w in DI water): 1.15 µg/mL (≈ 2.91 µM)
solubility at 24 h ([3]; aqueous L-Arginine solution in DI water, aqueous with cosolvent or surfactant or cyclodextrin, L-Arginine 0.15 % w/w in DI water): 11.1 µg/mL (≈ 28.1 µM)
solubility at 24 h ([3]; aqueous L-Arginine solution in DI water, aqueous with cosolvent or surfactant or cyclodextrin, L-Arginine 0.31 % w/w in DI water): 15.1 µg/mL (≈ 38.3 µM)
solubility at 24 h ([3]; aqueous L-Arginine solution in DI water, aqueous with cosolvent or surfactant or cyclodextrin, L-Arginine 0.5 % w/w in DI water): 25.3 µg/mL (≈ 64.2 µM)
solubility at 24 h ([3]; aqueous L-Arginine solution in DI water, aqueous with cosolvent or surfactant or cyclodextrin, L-Arginine 0.63 % w/w in DI water): 34.2 µg/mL (≈ 86.7 µM)
solubility at 24 h ([3]; aqueous L-Arginine solution in DI water, aqueous with cosolvent or surfactant or cyclodextrin, L-Arginine 1.25 % w/w in DI water): 46.8 µg/mL (≈ 119 µM)
solubility at 24 h ([3]; aqueous L-Arginine solution in DI water, aqueous with cosolvent or surfactant or cyclodextrin, L-Arginine 2.5 % w/w in DI water): 85.8 µg/mL (≈ 218 µM)

Cc1ccccc1COc1ccc(Sc2ccoc2C2NC(=O)NC2=O)cc1 (centres unmarked) [IVP, 5-{3-[4-(2-Methyl-benzyloxy)phenylthio]fur-2-yl}imidazolidine-2,4-dione]
solubility at 24 h [1, 4]: 15 µg/mL (≈ 38 µM)
solubility at 24 h [1, 5]: 727 µg/mL (≈ 1840 µM)
solubility at 24 h [1, 6]: 1 µg/mL (≈ 2.54 µM)
solubility at 24 h [1, 7]: 6270 µg/mL (≈ 15900 µM)
solubility at 24 h [1, 8]: 805 µg/mL (≈ 2040 µM)
solubility at 24 h ([1]; water, ACD 0 mg/ml): 64 µg/mL (≈ 162 µM)
solubility at 24 h ([1]; water, HPBCD 0 mg/ml): 64 µg/mL (≈ 162 µM)
solubility at 24 h ([1]; water, HPGCD 0 mg/ml): 64 µg/mL (≈ 162 µM)
solubility at 24 h ([1]; water, MBCD 0 mg/ml): 64 µg/mL (≈ 162 µM)
solubility at 24 h ([1]; water, SBEBCD 0 mg/ml): 64 µg/mL (≈ 162 µM)

O=C1NC(=O)C(c2occc2Sc2ccc(OCc3cccc(C(F)(F)F)c3)cc2)N1 (centres unmarked) [IVQ, 5-{3-[4-(3-Trifluoromethyl-benzyloxy)phenylthio]fur-2-yl}imidazolidine-2,4-dione]
solubility at 24 h [1, 4]: 111 µg/mL (≈ 248 µM)
solubility at 24 h [1, 5]: 1220 µg/mL (≈ 2710 µM)
solubility at 24 h [1, 7]: 5780 µg/mL (≈ 12900 µM)
solubility at 24 h [1, 8]: 641 µg/mL (≈ 1430 µM)
solubility at 24 h ([1]; water, ACD 0 mg/ml): 138 µg/mL (≈ 308 µM)
solubility at 24 h ([1]; water, HPBCD 0 mg/ml): 138 µg/mL (≈ 308 µM)
solubility at 24 h ([1]; water, HPGCD 0 mg/ml): 138 µg/mL (≈ 308 µM)
solubility at 24 h ([1]; water, MBCD 0 mg/ml): 138 µg/mL (≈ 308 µM)
solubility at 24 h ([1]; water, SBEBCD 0 mg/ml): 138 µg/mL (≈ 308 µM)

Source: US11628220B2, “Pharmaceutical composition and methods of uses” (Foresee Pharmaceuticals Co., Ltd., priority 2016, dated 2023)
